Assay results as given in patent US12570675B2, “Boronic acid compounds” (LG CHEM, LTD., priority 2020, dated 2026).
pIC50: −log10 of the molar value.

These compounds were tested against Proteasome chymotrypsin-like activity (S26 protein from RPMI8226 cells) (Homo sapiens, UniProt P28074). Conditions: S26 protein from RPMI8226 cell extract 2 ug/well, substrate 20 uM, 37° C., 90 minutes; read-out: Proteasome chymotrypsin-like activity inhibition IC50.
Chain of Proteasome chymotrypsin-like activity (S26 protein from RPMI8226 cells) (P28074 60-263 limits assumed): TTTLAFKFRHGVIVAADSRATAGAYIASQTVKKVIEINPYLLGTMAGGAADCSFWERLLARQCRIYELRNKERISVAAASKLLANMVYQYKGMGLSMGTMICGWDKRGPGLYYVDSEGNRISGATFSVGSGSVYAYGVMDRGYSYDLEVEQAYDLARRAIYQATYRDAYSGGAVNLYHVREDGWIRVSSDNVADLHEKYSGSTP
Type: biochemical
Procedure: The abilities to inhibit the proteasome activity of the compounds described in the Examples of the present invention and boronic acid drugs were evaluated as follows.
RPMI8226 cells, which is a multiple myeloma cell line, were cultured and then separated by a centrifuge, and washed twice with phosphate buffered saline (PBS). 20 mM of a tris-HCl (pH 8.0) buffer solution was added to the washed cells, and the cells were disrupted by a homogenizer and centrifuged to obtain S26 protein from the supernatant. Suc-Leu-Leu-Val-Tyr-AMC, for a fluorogenic substrate for the chymotrypsin-like activity of the proteasome, and Z-Leu-Leu-Glu-AMC, for a fluorogenic substrate for the caspase-like activity, were purchased from Calbiochem, EMD Millipore and used. Into each well of a 96-well plate (opaque, black round bottom), 20 ul of the S26 protein (final RPMI8226 cell extract concentration: 2 ug/well), 10 ul of S26 proteasome inhibitor serially diluted from 10 uM (final DMSO concentration: 0.5%), and 20 ul of the fluorogenic substrate for the proteasome chymotrypsin-like or caspase-like activity (final concentration: 20 uM) were added and mixed and allowed to react in a 37° C. incubator for 90 minutes. The fluorescence of the fluorogenic substrate was measured by FlexStation II Fluorometer (Molecular Devices). The fluorescence inhibited by the compound diluted at each concentration was measured as the relative percentage value for the amount obtained from the treatment only with the S26 protein and the fluorogenic substrate. IC50 (inhibitory concentration 50) was expressed in terms of a concentration that inhibits 50% of the maximum fluorescence induced by the fluorogenic substrate.
For `CC(C)C[C@H](NC(=O)C1CC(CNC(=O)c2cnccn2)=NO1)B(O)O` (stereo partly drawn) [Example 83, ((1R)-3-methyl-1-(3-((pyrazin-2-carboxamido)methyl)-4,5-dihydroisoxazol-5-carboxamido)butyl)boronic acid], the pIC50 was > 6.60. `CC(C)C[C@H](NC(=O)C1CC([C@H](CC(C)C)NC(=O)Cc2ccccc2)=NO1)B(O)O` (stereo partly drawn) [Example 105, ((1R)-3-methyl-1-(3-((S)-3-methyl-1-(2-phenylacetamido)butyl)-4,5-dihydroisoxazol-5-carboxamido)butyl)boronic acid] was tested, and the pIC50 was > 7.00. With `N#Cc1cccc(COCC2=NOC(Cc3ccccc3)(C(=O)N[C@@H](Cc3ccccc3)B(O)O)C2)c1` (stereo partly drawn) [Example 265, ((1R)-1-(5-benzyl-3-(((3-cyanobenzyl)oxy)methyl)-4,5-dihydroisoxazol-5-carboxamido)-2-phenylethyl)boronic acid] the pIC50 was > 8.00. `CC(C)[C@H](NC(=O)C1(Cc2ccccc2)CC(CNC(=O)c2cccn3ccnc23)=NO1)B(O)O` (stereo partly drawn) [Example 298, ((1R)-1-(5-benzyl-3-((imidazo[1,2-a]pyridin-8-carboxamido)methyl)-4,5-dihydroisoxazol-5-carboxamido)-2-methylpropyl)boronic acid] was tested, and the pIC50 was > 8.00. In the case of `CC(C)C[C@H](NC(=O)C1(Cc2ccccc2)CC(CNCc2nccc3ccccc23)=NO1)B(O)O` (stereo partly drawn) [Example 147, ((1R)-1-(5-benzyl-3-(((isoquinolin-1-ylmethyl)amino)methyl)-4,5-dihydroisoxazol-5-carboxamido)-3-methylbutyl)boronic acid], the pIC50 was > 7.60. In the case of `O=C(NCC1=NOC(Cc2ccccc2)(C(=O)N[C@@H](Cc2ccccc2)B(O)O)C1)c1nccc2ccccc12` (stereo partly drawn) [Example 288, ((1R)-1-(5-benzyl-3-((isoquinolin-1-carboxamido)methyl)-4,5-dihydroisoxazol-5-carboxamido)-2-phenylethyl)boronic acid], the pIC50 was > 8.00. For `CC(C)C[C@H](NC(=O)C1(Cc2ccccc2)CC(CNC(=O)c2cc(F)cnc2Cl)=NO1)B(O)O` (stereo partly drawn) [Example 164, ((1R)-1-(5-benzyl-3-((2-chloro-5-fluoronicotinamido)methyl)-4,5-dihydroisoxazol-5-carboxamido)-3-methylbutyl)boronic acid], the pIC50 was > 8.00. For `CC(C)C[C@H](NC(=O)C1(Cc2ccccc2)CC(CNC(=O)c2ccnn2C2CCOCC2)=NO1)B(O)O` (stereo partly drawn) [Example 197, ((1R)-1-(5-benzyl-3-((1-(tetrahydro-2H-pyran-4-yl)-1H-pyrazol-5-carboxamido)methyl)-4,5-dihydroisoxazol-5-carboxamido)-3-methylbutyl)boronic acid], the pIC50 was > 8.00. With `COc1cccc(CC2(C(=O)N[C@@H](CC(C)C)B(O)O)CC(CNC(=O)c3cc(C)nn3C3CCCC3)=NO2)c1` (stereo partly drawn) [Example 240, ((1R)-1-(3-((1-cyclopentyl-3-methyl-1H-pyrazol-5-carboxamido)methyl)-5-(3-methoxybenzyl)-4,5-dihydroisoxazol-5-carboxamido)-3-methylbutyl)boronic acid] the pIC50 was > 8.00. For `Cc1cccnc1C(=O)NCC1=NOC(Cc2ccccc2)(C(=O)N[C@@H](CC(C)C)B(O)O)C1` (stereo partly drawn) [Example 159, ((1R)-1-(5-benzyl-3-((3-methylpicolinamido)methyl)-4,5-dihydroisoxazol-5-carboxamido)-3-methylbutyl)boronic acid], the pIC50 was > 8.00. In the case of `CC(C)C[C@H](NC(=O)C1(Cc2ccccc2)CC(COc2ccc3ccccc3c2)=NO1)B(O)O` (some centres unmarked) [Example 262], the pIC50 was > 7.00. `CC(C)C[C@H](NC(=O)C1(Cc2ccccc2)CC(CNC(=O)c2cccc(N(C)C)c2)=NO1)B(O)O` (some centres unmarked) [Example 321] was tested, and the pIC50 was > 8.00. For `CC(=O)Nc1ccc(C2=NOC(C(=O)N[C@@H](CC(C)C)B(O)O)C2)cc1` (stereo partly drawn) [Example 16, ((1R)-1-(3-(4-acetamidophenyl)-4,5-dihydroisoxazol-5-carboxamido)-3-methylbutyl)boronic acid], the pIC50 was > 6.60. `CC(C)C[C@H](NC(=O)C1(Cc2ccccc2)CC(CNC(=O)c2cc3ccccc3cn2)=NO1)B(O)O` (stereo partly drawn) [Example 121, ((1R)-1-(5-benzyl-3-((isoquinolin-3-carboxamido)methyl)-4,5-dihydroisoxazol-5-carboxamido)-3-methylbutyl)boronic acid] was tested, and the pIC50 was > 8.00. In the case of `O=C(NCC1=NOC(Cc2ccccc2)(C(=O)N[C@@H](Cc2ccccc2)B(O)O)C1)c1cccn2ccnc12` (stereo partly drawn) [Example 300, ((1R)-1-(5-benzyl-3-((imidazo[1,2-a]pyridin-8-carboxamido)methyl)-4,5-dihydroisoxazol-5-carboxamido)-2-phenylethyl)boronic acid], the pIC50 was > 8.00. In the case of `CC(C)C[C@H](NC(=O)C1(Cc2ccccc2)CC(CNC(=O)c2cccn3c(Cl)cnc23)=NO1)B(O)O` (stereo partly drawn) [Example 142, ((1R)-1-(5-benzyl-3-((3-chloroimidazo[1,2-a]pyridin-8-carboxamido)methyl)-4,5-dihydroisoxazol-5-carboxamido)-3-methylbutyl)boronic acid], the pIC50 was > 8.00. In the case of `N#Cc1cccc(C(=O)NCC2=NOC(Cc3ccccc3)(C(=O)N[C@@H](Cc3ccccc3)B(O)O)C2)c1` (stereo partly drawn) [Example 317, ((1R)-1-(5-benzyl-3-((3-cyanobenzamido)methyl)-4,5-dihydroisoxazol-5-carboxamido)-2-phenylethyl)boronic acid], the pIC50 was > 8.00. For `CC(C)C[C@H](NC(=O)C1CC(c2cc(Cl)ccc2Cl)=NO1)B(O)O` (stereo partly drawn) [Example 3, ((1R)-1-(3-(2,5-dichlorophenyl)-4,5-dihydroisoxazol-5-carboxamido)-3-methylbutyl)boronic acid], the pIC50 was > 6.60. `CC(C)C[C@H](NC(=O)C1(Cc2ccccc2)CC(CNC(=O)Cc2ccccc2)=NO1)B(O)O` (stereo partly drawn) [Example 109, ((1R)-1-(5-benzyl-3-((2-phenylacetamido)methyl)-4,5-dihydroisoxazol-5-carboxamido)-3-methylbutyl)boronic acid] was tested, and the pIC50 was > 8.00. `Cc1cccc(CC2(C(=O)N[C@@H](CC(C)C)B(O)O)CC(CNC(=O)c3c(Cl)c(C)nn3C(C)C)=NO2)c1` (stereo partly drawn) [Example 244, ((1R)-1-(3-((4-chloro-1-isopropyl-3-methyl-1H-pyrazol-5-carboxamido)methyl)-5-(3-methylbenzyl)-4,5-dihydroisoxazol-5-carboxamido)-3-methylbutyl)boronic acid] was tested, and the pIC50 was > 8.00. `CC(C)C[C@H](NC(=O)C1(Cc2ccccc2)CC(CNC(=O)c2cccc(-c3ccccc3)n2)=NO1)B(O)O` (stereo partly drawn) [Example 96, ((1R)-1-(5-benzyl-3-((6-phenylpicolinamido)methyl)-4,5-dihydroisoxazol-5-carboxamido)-3-methylbutyl)boronic acid] was tested, and the pIC50 was > 8.00. With `CC(C)C[C@H](NC(=O)C1CC(c2cccc(OC(F)(F)F)c2)=NO1)B(O)O` (stereo partly drawn) [Example 37, ((1R)-3-methyl-1-(3-(3-(trifluoromethoxy)phenyl)-4,5-dihydroisoxazol-5-carboxamido)butyl)boronic acid] the pIC50 was > 6.30. For `COC[C@@H](NC(=O)c1nccc2ccccc12)C1=NOC(Cc2ccccc2)(C(=O)N[C@@H](CC(C)C)B(O)O)C1` (stereo partly drawn) [Example 185, ((1R)-1-(5-benzyl-3-((S)-1-(isoquinolin-1-carboxamido)-2-methoxyethyl)-4,5-dihydroisoxazol-5-carboxamido)-3-methylbutyl)boronic acid], the pIC50 was > 8.00.
